The source of these data is ChEMBL document CHEMBL1121894, “Studies on phenethylamine hallucinogens. 2. Conformations of arylmethoxyl groups using 13C NMR” (1981).

Activity calls are given as the source filed them. The rule behind the calls is not given here.

Assay [1] is filed under the species Homo sapiens. Put plainly: Psychotomimetic potency expressed as the effective dose of mescaline divided by the effective dose in human. It is filed as functional.
Assay [2] is filed under the species Homo sapiens. The assay can be described thus: Psychotomimetic potency expressed as the effective dose of mescaline divided by the effective dose in human; Inactive. It is filed as functional, organism-based.

On to `COc1ccc(CC(C)N)cc1.Cl` (stereo unspecified), for which the Potency in assay [1] came to 5 MU.
Consider `COc1ccc(CC(C)N)c(OC)c1OC` (stereo unspecified), for which, in assay [2], the Potency result is “inactive”.
The compound `COc1ccc(OC)c(CC(C)N)c1.Cl` (stereo unspecified) gave a Potency in assay [1] of 8 MU.
On the same count and under the same terms, to `COc1cc(CCN)cc(OC)c1OC.Cl` belongs 1 MU.
Still for that read-out and setting: the same measure for `COc1cc(OC)c(OC)cc1CC(C)N.Cl` (stereo unspecified): 17 MU.
On the same count and under the same terms, the same measure for `COc1cc(OC)c(CC(C)N)c(OC)c1.Cl` (stereo unspecified): 10 MU.
In assay [1], `COc1c(CC(C)N)ccc2c1OCO2.Cl` (stereo unspecified) came in with a Potency of 10 MU.
`COc1cc(CC(C)N)c(OC)cc1C.Cl` (stereo unspecified) gave a Potency in assay [1] of 80 MU.
In assay [1], `COc1cc(CC(C)N)cc(OC)c1OC.Cl` (stereo unspecified) returned a Potency of 2.2 MU.
Same read-out and setting: to `COc1c(CCN)ccc2c1OCO2.Cl` belongs 5 MU.
`COc1ccc(CCN)c(OC)c1OC`: the Potency entry in assay [2] was “inactive”.
